According to ChEMBL document CHEMBL1649358, “Induced production of bromomethylchlamydosporols A and B from the marine-derived fungus Fusarium tricinctum” (2010):
≈ marks a conversion by molar mass, not a printed value.

How the values were obtained:
Format in all cases: functional
[1] = tested on: Staphylococcus aureus; assay: Antibacterial activity against Staphylococcus aureus ATCC 29213 after 18 hrs by broth dilution method; conditions: ATCC 29213, 18 h
[2] = tested on: Staphylococcus aureus; assay: Antibacterial activity against methicillin-resistant Staphylococcus aureus CCARM 3167 after 18 hrs by broth dilution method; conditions: CCARM 3167, 18 h
[3] = tested on: Staphylococcus aureus; assay: Antibacterial activity against multidrug-resistant Staphylococcus aureus CCARM 3089 after 18 hrs by broth dilution method; conditions: CCARM 3089, 18 h

SMILES | MIC [1] [µg/mL] | MIC [2] [µg/mL] | MIC [3] [µg/mL]
COc1c2c(oc(=O)c1Br)C(C)(Br)[C@](C)(OC)OC2 (some centres not stated) [BROMOMETHYLCHLAMYDOSPOROL B] | 15.6 (≈ 39.2 µM) | 15.6 (≈ 39.2 µM) | 15.6 (≈ 39.2 µM)
COc1cc(=O)oc2c1COC(C)(O)[C@H]2C (mixture of isomers) [CHLAMYDOSPOROL] | 31.5 | 31.5 | 62.5
COc1cc(=O)oc2c1CO[C@@](C)(OC)[C@@]2(C)Br [BROMOMETHYLCHLAMYDOSPOROL A] | 15.6 (≈ 48.9 µM) | 15.6 (≈ 48.9 µM) | 15.6 (≈ 48.9 µM)
C/C=C(\C)[C@H]1[C@@H](/C=C/C=C(\C)[C@@H](O)[C@@H](C)CO)[C@@H]2C[C@@H]3O[C@]3(C)C[C@H]2[C@@H]2O[C@@]21C [FUSARIELIN A] | 31.5 (≈ 78.2 µM) | 31.5 (≈ 78.2 µM) | 62.5 (≈ 155 µM)
